Results as given in article PMC6199744, “Development of Chemical Proteomics for the Folateome and Analysis of the Kinetoplastid Folateome” (ACS Infectious Diseases, 2018).
Read-outs that look alike come from different tables or passages of the source.

Assays:
Type in all cases: binding
[1] = biological target: T1, HeLa cell extract proteins (Homo sapiens, UniProt P04075)
T1 construct: endogenous in cells; host or cells: HeLa cell extract
T1 sequence (P04075 1-364): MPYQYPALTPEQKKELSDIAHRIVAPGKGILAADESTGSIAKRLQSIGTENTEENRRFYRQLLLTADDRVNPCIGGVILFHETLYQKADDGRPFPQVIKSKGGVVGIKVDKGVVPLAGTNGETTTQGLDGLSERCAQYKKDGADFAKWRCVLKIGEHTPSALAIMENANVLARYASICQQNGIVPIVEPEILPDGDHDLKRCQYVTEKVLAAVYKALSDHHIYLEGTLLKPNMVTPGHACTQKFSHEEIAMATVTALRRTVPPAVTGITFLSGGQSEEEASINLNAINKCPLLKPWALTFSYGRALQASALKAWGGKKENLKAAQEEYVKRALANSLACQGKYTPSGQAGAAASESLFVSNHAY

[2] = biological target: T2, HeLa cell extract proteins (Homo sapiens, UniProt P17812)
T2 construct: endogenous in cells; host or cells: HeLa cell extract
T2 sequence (P17812 1-591): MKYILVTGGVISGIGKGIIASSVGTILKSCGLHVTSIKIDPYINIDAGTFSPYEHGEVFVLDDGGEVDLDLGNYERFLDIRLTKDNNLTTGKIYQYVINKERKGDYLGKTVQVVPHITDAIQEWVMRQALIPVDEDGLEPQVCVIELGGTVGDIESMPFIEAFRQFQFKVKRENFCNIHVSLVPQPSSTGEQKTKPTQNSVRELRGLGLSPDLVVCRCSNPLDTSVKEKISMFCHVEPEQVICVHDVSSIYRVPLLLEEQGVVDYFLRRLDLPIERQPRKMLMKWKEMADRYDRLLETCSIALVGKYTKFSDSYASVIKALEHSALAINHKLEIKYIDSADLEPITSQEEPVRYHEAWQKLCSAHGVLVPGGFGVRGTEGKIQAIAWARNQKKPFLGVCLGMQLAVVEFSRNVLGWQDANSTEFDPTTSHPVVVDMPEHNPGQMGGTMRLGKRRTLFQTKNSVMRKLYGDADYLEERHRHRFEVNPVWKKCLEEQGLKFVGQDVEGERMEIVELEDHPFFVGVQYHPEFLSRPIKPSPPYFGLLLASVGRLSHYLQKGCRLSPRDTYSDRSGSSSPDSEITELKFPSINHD

[3] = biological target: T3, HeLa cell extract proteins (Homo sapiens, UniProt P22234)
T3 construct: endogenous in cells; host or cells: HeLa cell extract
T3 sequence (P22234 1-425): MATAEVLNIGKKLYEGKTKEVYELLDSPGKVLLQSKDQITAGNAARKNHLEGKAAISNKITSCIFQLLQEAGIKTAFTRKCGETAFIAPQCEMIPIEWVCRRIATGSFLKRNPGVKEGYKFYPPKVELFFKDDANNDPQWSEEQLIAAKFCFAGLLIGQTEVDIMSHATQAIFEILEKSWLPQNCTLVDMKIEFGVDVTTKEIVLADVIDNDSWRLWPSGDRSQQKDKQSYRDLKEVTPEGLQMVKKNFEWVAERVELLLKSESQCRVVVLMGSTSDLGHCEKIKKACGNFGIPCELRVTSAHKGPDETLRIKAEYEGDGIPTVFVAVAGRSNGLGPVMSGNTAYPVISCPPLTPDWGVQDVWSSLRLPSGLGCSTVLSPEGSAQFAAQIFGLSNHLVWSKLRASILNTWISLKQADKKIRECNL

[4] = biological target: T4, HeLa cell extract proteins (Homo sapiens, UniProt P49588)
T4 construct: endogenous in cells; host or cells: HeLa cell extract
T4 sequence (P49588 1-968): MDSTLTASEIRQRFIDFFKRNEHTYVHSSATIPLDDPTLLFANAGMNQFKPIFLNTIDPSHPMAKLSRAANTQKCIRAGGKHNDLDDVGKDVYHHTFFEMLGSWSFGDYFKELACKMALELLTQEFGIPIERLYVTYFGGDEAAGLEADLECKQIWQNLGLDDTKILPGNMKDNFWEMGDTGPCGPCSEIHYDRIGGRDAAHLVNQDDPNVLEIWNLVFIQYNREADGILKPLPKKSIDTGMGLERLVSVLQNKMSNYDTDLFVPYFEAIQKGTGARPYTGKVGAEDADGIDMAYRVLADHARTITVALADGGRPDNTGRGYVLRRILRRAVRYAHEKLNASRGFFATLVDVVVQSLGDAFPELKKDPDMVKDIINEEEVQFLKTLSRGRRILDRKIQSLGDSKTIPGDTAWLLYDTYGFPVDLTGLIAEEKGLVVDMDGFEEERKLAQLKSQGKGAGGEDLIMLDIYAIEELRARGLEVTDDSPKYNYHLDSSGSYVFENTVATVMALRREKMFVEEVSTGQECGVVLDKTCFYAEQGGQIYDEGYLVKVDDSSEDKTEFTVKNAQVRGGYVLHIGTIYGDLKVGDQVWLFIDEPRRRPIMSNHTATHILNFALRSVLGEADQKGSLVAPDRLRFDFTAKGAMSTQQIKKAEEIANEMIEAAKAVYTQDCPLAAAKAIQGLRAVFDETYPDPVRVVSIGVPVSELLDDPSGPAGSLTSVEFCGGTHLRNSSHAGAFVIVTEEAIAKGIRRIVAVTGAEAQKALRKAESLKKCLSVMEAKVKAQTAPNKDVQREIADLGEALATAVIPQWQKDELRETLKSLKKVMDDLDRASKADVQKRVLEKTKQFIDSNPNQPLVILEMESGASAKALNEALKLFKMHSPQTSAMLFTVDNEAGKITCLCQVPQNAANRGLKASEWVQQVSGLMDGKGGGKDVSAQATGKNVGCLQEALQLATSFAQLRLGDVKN

[5] = HeLa, protein ALDOA (45 KDA PROTEIN.)

Structure (SMILES) | fold changes relative to vehicle control ([1]; protein ALDOA, HeLa) | fold changes relative to vehicle control ([2]; HeLa, protein CTPS) | fold changes relative to vehicle control ([3]; HeLa, protein PAICS) | fold changes relative to vehicle control ([4]; HeLa, protein AARS) | fold changes relative to vehicle control [1, 5] [fold] | fold changes relative to vehicle control ([3]; protein PAICS, HeLa) | fold changes relative to vehicle control ([4]; protein AARS, HeLa) | fold changes relative to vehicle control [1] | fold changes relative to vehicle control [2] | fold changes relative to vehicle control [3] | fold changes relative to vehicle control [4]
Nc1nc2c(c(=O)[nH]1)N(C=O)C(CNc1ccc(C(=O)N[C@@H](CCC(=O)O)C(=O)O)cc1)CN2 (stereo partly shown) [LEU, leucovorin] | 0.98 | 0.93 | 0.97 | 1.02 |  |  |  |  |  |  | 
NCCCNc1ccc(C(=O)NC(CCC(=O)O)C(=O)O)cc1 (stereo not shown) [compound 7] | 1.02 | 0.98 | 0.98 | 1 |  |  |  |  |  |  | 
CCCCCCOc1cccc(Cc2cnc(N)nc2N)c1 [compound 2] |  | 1.09 |  |  | 2.49 | 1.68 | 1.96 |  |  |  | 
CCCCCCOc1ccc(Cc2cnc(N)nc2N)cc1 [compound 1] |  | 0.99 |  |  | 1.38 | 1.07 | 1.15 |  |  |  | 
Nc1nc2cccc(-c3ccccc3)c2n1Cc1ccc(Cl)c(Cl)c1 [compound 3] |  | 0.95 |  |  | 0.85 | 0.94 | 0.95 |  |  |  | 
NCCOCCOCC(=O)Nc1nc2ncc(CNc3ccc(C(=O)NC(CCC(=O)O)C(=O)O)cc3)nc2c(=O)[nH]1 (stereo not shown) [compound 6] | 1.34 | 0.95 | 1.22 | 1.28 |  |  |  |  |  |  | 
Nc1nc2[nH]cc(CCc3ccc(C(=O)N[C@@H](CCC(=O)O)C(=O)O)cc3)c2c(=O)[nH]1 [PTX, pemetrexed] |  |  |  |  |  |  |  | 1.21 | 0.85 | 0.86 | 1.1
